Source: the NIST ThermoML archive (doi:10.1016/j.jct.2011.05.022)
Numbers after ± are expanded uncertainties.

Assay: molar heat capacity at constant pressure
Settings: 101.33 kPa, Liquid, Small sample (50 mg) DSC

molar heat capacity at constant pressure (298.2 K) | molar heat capacity at constant pressure (323.2 K) | Structure (SMILES)
524 ± 53 J/K/mol | 554 ± 56 J/K/mol | CCCC[N+]1(C)CCCC1.N#C[B-](C#N)(C#N)C#N [1-butyl-1-methylpyrrolidinium tetracyanoborate]
495 ± 50 J/K/mol | 524 ± 53 J/K/mol | CCCC[n+]1cccc(C)c1.N#C[B-](C#N)(C#N)C#N [1-butyl-3-methylpyridinium tetracyanoborate]
